Data as given in patent publication US9809537B2, “Glycosidase inhibitors and uses thereof” (Alectos Therapeutics Inc., priority 2012, dated 2017).

Biological target: T1, human O-GlcNAcase (Homo sapiens, UniProt O60502)
T1 sequence (O60502 1-916): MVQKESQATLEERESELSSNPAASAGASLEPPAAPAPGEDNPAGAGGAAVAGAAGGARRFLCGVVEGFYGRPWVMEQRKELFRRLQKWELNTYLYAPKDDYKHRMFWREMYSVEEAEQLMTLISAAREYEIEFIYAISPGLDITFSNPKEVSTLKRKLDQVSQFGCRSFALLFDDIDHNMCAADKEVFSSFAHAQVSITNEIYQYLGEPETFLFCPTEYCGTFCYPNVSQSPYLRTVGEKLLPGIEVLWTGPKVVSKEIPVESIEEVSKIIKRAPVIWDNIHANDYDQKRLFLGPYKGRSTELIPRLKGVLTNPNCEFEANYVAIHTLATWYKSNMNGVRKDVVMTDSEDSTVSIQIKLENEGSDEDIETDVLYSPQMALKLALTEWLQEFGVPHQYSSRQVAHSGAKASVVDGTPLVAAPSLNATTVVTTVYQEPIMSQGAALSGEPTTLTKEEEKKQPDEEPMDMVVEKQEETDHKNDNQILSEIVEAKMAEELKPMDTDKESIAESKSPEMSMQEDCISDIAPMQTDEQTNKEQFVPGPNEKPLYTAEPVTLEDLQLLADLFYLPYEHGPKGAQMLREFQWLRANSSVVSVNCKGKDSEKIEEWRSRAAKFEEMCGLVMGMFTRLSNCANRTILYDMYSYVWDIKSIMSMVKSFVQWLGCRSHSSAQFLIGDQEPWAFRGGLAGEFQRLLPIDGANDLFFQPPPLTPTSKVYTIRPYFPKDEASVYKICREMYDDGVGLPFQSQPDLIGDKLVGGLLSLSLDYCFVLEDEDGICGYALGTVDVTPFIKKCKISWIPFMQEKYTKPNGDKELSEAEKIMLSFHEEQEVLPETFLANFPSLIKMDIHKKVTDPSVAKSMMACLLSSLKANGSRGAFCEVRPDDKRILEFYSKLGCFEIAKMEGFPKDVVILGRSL
Test: Fluorescence-based assay for KI values for inhibition of O-GlcNAcase activity
Format: biochemical
Details: purified human O-GlcNAcase, 4-methylumbelliferyl GlcNAc substrate, pH 7.0, Cheng-Prusoff; read-out: Fluorescence-based hOGA Ki
Experimental: Assay for Determination of KI Values for Inhibition of O-GlcNAcase Activity
Experimental Procedure for Kinetic Analyses:
Enzymatic reactions were carried out in a reaction containing 50 mM NaH2PO4, 100 mM NaCl and 0.1% BSA (pH 7.0) using 2 mM 4-Methylumbelliferyl N-acetyl-β-D-glucosaminide dihydrate (Sigma M2133) dissolved in ddH2O, as a substrate. The amount of purified human O-GlcNAcase enzyme used in the reaction was 0.7 nM. Test compound of varying concentrations was added to the enzyme prior to initiation of the reaction. The reaction was performed at room temperature in a 96-well plate and was initiated with the addition of substrate. The production of fluorescent product was measured every 60 sec for 45 min with a Tecan Infinite M200 plate-reader with excitation at 355 nm and emission detected at […], with 4-Methylumbelliferone (Sigma M1381) used to produce a standard curve. The slope of product production was determined for each concentration of compound tested and plotted, using standard curve fitting algorithms for sigmoidal dose response curves. The values for a four parameter logistic curve fit of the data were determined.
KI values were determined using the Cheng-Prusoff equation; the Km of O-GlcNAcase for substrate was 0.2 mM.

For `CC(=O)NC[C@@H]1[C@@H](O)[C@H](O)[C@@H](CO)N1CCCc1ccc(-c2ccccc2)cc1` [Example 3, N-(((2R,3R,4R,5R)-1-(3-([1,1′-biphenyl]-4-yl)propyl)-3,4-dihydroxy-5-(hydroxymethyl)pyrrolidin-2-yl)methyl)acetamide], the Ki was 16 nM.
